Molecules are shown by their SMILES. Where two headings read alike, the source gives them in different places.

The values that follow come from patent US11897880B2, “7,8-dihydrobenzo[e]pyrido[3,4-c]azocine-2,5(3H,6H)-dione derivatives useful as a factor XIa inhibitors” (Janssen Pharmaceutica NV, priority 2021, dated 2024).

The target in one assay is human plasma kallikrein (Homo sapiens, UniProt P03952). The experiment in a line: Kallikrein inhibition assay utilizing a quenched AMC peptide substrate (FLINT). Format: biochemical. The following applies: 30 min preincubation, 50 μM Z-Gly-Pro-Arg-AMC, 2 nM kallikrein. An outline of the steps:
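Human plasma kallikrein (2 nM final) was preincubated 30 min at room temperature with compound (11-point 3-fold dilution, top 1 μM, 2% DMSO) in pH 7.5 Tris buffer with CaCl2, BSA and CHAPS. Z-Gly-Pro-Arg-AMC (50 μM final) fluorescence was read at 340/440 nm every 5 min for 30 min. IC50 came from a 4-parameter logistic fit.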

For the next assay, the target named is Factor XIa (Homo sapiens, UniProt P03951). The experiment in a line: Factor XIa inhibition assay utilizing a fluorophore-quencher pair peptide substrate (FLINT). Format: biochemical. The settings on record: for IC50: read-out: FXIa IC50; for Ki: read-out: FXIa Ki. An outline of the steps:
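Enzyme preincubated 30 min at room temperature with compound (11-point 3-fold dilution, top 100 nM, 2% DMSO), then 15 μM 5Fam-KLTRAETV-K5Tamra substrate added. Buffer: 50 mM Tris pH 7.5, 100 mM NaCl, 5 mM CaCl2, 0.1 mg/mL BSA, 0.03% CHAPS. Fluorescence (485/520 nm) read kinetically over 30 min; IC50 from 4-parameter logistic fit.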

The mark [1] stands for this setting: 30 min preincubation, 5Fam-KLTRAETV-K5Tamra substrate 15 μM final, kinetic reads.
Setting [2] is: cells that print μM themselves in the nM column.
[3] abbreviates: cells that print μM themselves in the nM column, same assay conditions.

Chain of Factor XIa (P03951 388-625 limits assumed): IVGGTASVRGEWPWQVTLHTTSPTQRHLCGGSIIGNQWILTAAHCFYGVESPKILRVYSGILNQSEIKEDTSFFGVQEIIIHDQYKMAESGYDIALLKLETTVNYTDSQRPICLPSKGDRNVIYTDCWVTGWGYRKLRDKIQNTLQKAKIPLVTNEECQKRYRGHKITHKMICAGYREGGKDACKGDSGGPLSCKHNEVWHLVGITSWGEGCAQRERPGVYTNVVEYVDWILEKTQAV
Chain of Factor XIa (P03951 19-387 partner limits assumed): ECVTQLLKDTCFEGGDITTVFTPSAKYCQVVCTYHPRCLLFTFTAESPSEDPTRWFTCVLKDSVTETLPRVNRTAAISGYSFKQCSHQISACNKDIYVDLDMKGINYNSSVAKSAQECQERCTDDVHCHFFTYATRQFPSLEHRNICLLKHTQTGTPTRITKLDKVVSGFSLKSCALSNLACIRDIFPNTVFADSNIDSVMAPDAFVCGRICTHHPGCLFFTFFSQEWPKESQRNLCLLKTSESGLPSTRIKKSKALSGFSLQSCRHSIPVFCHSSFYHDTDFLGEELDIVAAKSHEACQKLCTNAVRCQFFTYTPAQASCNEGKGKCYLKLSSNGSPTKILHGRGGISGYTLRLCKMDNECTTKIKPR
Chain of human plasma kallikrein (P03952 391-638 limits assumed): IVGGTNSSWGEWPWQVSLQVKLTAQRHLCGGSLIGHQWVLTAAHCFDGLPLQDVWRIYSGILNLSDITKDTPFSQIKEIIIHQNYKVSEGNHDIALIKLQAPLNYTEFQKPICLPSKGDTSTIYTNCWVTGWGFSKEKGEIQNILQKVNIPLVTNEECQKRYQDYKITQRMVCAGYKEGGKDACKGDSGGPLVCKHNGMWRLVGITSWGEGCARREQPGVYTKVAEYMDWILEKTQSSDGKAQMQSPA
Chain of human plasma kallikrein (P03952 20-390 partner limits assumed): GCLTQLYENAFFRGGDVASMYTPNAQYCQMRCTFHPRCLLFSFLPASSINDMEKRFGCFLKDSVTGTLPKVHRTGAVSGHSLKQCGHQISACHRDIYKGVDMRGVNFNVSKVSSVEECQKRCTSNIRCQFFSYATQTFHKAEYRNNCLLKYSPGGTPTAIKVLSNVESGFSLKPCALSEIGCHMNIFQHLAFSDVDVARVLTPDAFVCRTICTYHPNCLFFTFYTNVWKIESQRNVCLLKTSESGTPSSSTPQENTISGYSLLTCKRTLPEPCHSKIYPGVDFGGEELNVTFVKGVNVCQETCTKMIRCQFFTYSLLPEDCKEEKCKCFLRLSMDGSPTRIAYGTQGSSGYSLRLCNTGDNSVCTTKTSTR

For `COCCN1C(=O)c2c(cc(=O)n3c2CC[C@H]3c2ncc(-c3ccc(N)nc3F)[nH]2)-c2c(ccc(Cl)c2F)CC12CC2` (stereo in doubt) [Compound 25, (S*)-12-(5-(6-amino-2-fluoropyridin-3-yl)-1H-imidazol-2-yl)-7-chloro-8-fluoro-2-(2-methoxyethyl)-13,14-dihydro-2H-spiro[benzo[5,6]azocino[4,3-g]indolizine-3,1′-cyclopropane]-1,10(4H,12H)-dione], the IC50 on human plasma kallikrein is greater than 10000 nM; at Factor XIa (setting [1]) it was 0.26 µM. Also, the Ki at Factor XIa was found to be 0.13 µM.

`O=C1NC2(CC2)Cc2ccc(Cl)c(F)c2-c2cc(=O)n3c(c21)CC[C@@H]3c1ncc(-c2ccc3scnc3c2)[nH]1` (stereo in doubt) [Compound 26, (R*)-12-(5-(benzo[d]thiazol-5-yl)-1H-imidazol-2-yl)-7-chloro-8-fluoro-13,14-dihydro-2H-spiro[benzo[5,6]azocino[4,3-g]indolizine-3,1′-cyclopropane]-1,10(4H,12H)-dione]: the IC50 at human plasma kallikrein came to 70 nM; on Factor XIa (setting [1]), 0.0005 µM. Besides, the Ki on Factor XIa stood at 0.0003 µM.

Regarding `O=C1NC2(CC2)Cc2ccc(Cl)c(F)c2-c2cc(=O)n3c(c21)CC[C@H]3c1ncc(-c2ccc3scnc3c2)[nH]1` (stereo in doubt) [Compound 27, (S*)-12-(5-(benzo[d]thiazol-5-yl)-1H-imidazol-2-yl)-7-chloro-8-fluoro-13,14-dihydro-2H-spiro[benzo[5,6]azocino[4,3-g]indolizine-3,1′-cyclopropane]-1,10(4H,12H)-dione], the IC50 on human plasma kallikrein is greater than 10000 nM; on Factor XIa (setting [3]), 2.39 µM. The Ki on Factor XIa (setting [2]) came to 1.19 µM.

As for `O=C1NC2(CC2)Cc2ccc(Cl)c(F)c2-c2cc(=O)n3c(c21)CC[C@@H]3c1ncc(-c2ccc3snnc3c2)[nH]1` (stereo in doubt) [Compound 30, (R*)-12-(5-(benzo[d][1,2,3]thiadiazol-5-yl)-1H-imidazol-2-yl)-7-chloro-8-fluoro-13,14-dihydro-2H-spiro[benzo[5,6]azocino[4,3-g]indolizine-3,1′-cyclopropane]-1,10(4H,12H)-dione], the figures for the IC50 on human plasma kallikrein and at Factor XIa (setting [1]) were 330 nM and 0.0057 µM, respectively. Moreover, the Ki on Factor XIa stood at 0.0029 µM.

On to `O=C1NC2(CC2)Cc2ccc(Cl)c(F)c2-c2cc(=O)n3c(c21)CC[C@H]3c1ncc(-c2ccc3snnc3c2)[nH]1` (stereo in doubt) [Compound 31, (S*)-12-(5-(benzo[d][1,2,3]thiadiazol-5-yl)-1H-imidazol-2-yl)-7-chloro-8-fluoro-13,14-dihydro-2H-spiro[benzo[5,6]azocino[4,3-g]indolizine-3,1′-cyclopropane]-1,10(4H,12H)-dione], for which the IC50 at human plasma kallikrein was greater than 10000 nM; at Factor XIa (setting [3]) it was 1.18 µM. Also, at Factor XIa, the Ki amounted to 0.588 µM.

Consider `Nc1ccc(-c2cnc([C@@H]3CCc4c5c(cc(=O)n43)-c3c(ccc(Cl)c3F)CC3(CCC3)NC5=O)[nH]2)c(F)n1` (stereo in doubt) [Compound 32, (S*)-12-(5-(6-amino-2-fluoropyridin-3-yl)-1H-imidazol-2-yl)-7-chloro-8-fluoro-13,14-dihydro-2H-spiro[benzo[5,6]azocino[4,3-g]indolizine-3,1′-cyclobutane]-1,10(4H,12H)-dione], for which the IC50 against human plasma kallikrein is 230 nM; on Factor XIa (setting [1]), 0.0007 µM. Also, the Ki at Factor XIa worked out at 0.0004 µM.

For `Nc1ccc(-c2cnc([C@H]3CCc4c5c(cc(=O)n43)-c3c(ccc(Cl)c3F)CC3(CCC3)NC5=O)[nH]2)c(F)n1` (stereo in doubt) [Compound 33, (R*)-12-(5-(6-amino-2-fluoropyridin-3-yl)-1H-imidazol-2-yl)-7-chloro-8-fluoro-13,14-dihydro-2H-spiro[benzo[5,6]azocino[4,3-g]indolizine-3,1′-cyclobutane]-1,10(4H,12H)-dione], the IC50 at human plasma kallikrein was greater than 10000 nM; at Factor XIa (setting [1]), 0.237 µM. In addition, at Factor XIa, the Ki is 0.118 µM.

As for `Nc1ccc(-c2cnc([C@H]3CCc4c5c(cc(=O)n43)-c3c(ccc(Cl)c3F)CC3(CCCC3)NC5=O)[nH]2)c(F)n1` (stereo in doubt) [Compound 34, (R*)-12-(5-(6-amino-2-fluoropyridin-3-yl)-1H-imidazol-2-yl)-7-chloro-8-fluoro-13,14-dihydro-2H-spiro[benzo[5,6]azocino[4,3-g]indolizine-3,1′-cyclopentane]-1,10(4H,12H)-dione], the figures for the IC50 at human plasma kallikrein and at Factor XIa (setting [1]) were 6210 nM and 0.0337 µM, respectively. Also, the inhibitory constant (Ki) on Factor XIa is 0.0169 µM.

Turning to `Nc1ccc(-c2cnc([C@@H]3CCc4c5c(cc(=O)n43)-c3c(ccc(Cl)c3F)CC3(CCCC3)NC5=O)[nH]2)c(F)n1` (stereo in doubt) [Compound 35, (S*)-12-(5-(6-amino-2-fluoropyridin-3-yl)-1H-imidazol-2-yl)-7-chloro-8-fluoro-13,14-dihydro-2H-spiro[benzo[5,6]azocino[4,3-g]indolizine-3,1′-cyclopentane]-1,10(4H,12H)-dione], the figures for the IC50 against human plasma kallikrein and at Factor XIa (setting [1]) were 90 nM and 0.0004 µM, respectively. In addition, at Factor XIa, the Ki was determined as 0.0002 µM.

Consider `CN1C(=O)c2c(cc(=O)n3c2CC[C@@H]3c2ncc(-c3ccc(N)nc3F)[nH]2)-c2c(ccc(Cl)c2F)CC12CC2` (stereo in doubt) [Compound 40, (R*)-12-(5-(6-amino-2-fluoropyridin-3-yl)-1H-imidazol-2-yl)-7-chloro-8-fluoro-2-methyl-13,14-dihydro-2H-spiro[benzo[5,6]azocino[4,3-g]indolizine-3,1′-cyclopropane]-1,10(4H,12H)-dione], for which the values for the IC50 on human plasma kallikrein and at Factor XIa (setting [3]) were greater than 10000 nM and greater than 10 µM, respectively. The Ki on Factor XIa (setting [2]) is greater than 5 µM.

As for `CN1C(=O)c2c(cc(=O)n3c2CC[C@H]3c2ncc(-c3ccc(N)nc3F)[nH]2)-c2c(ccc(Cl)c2F)CC12CC2` (stereo in doubt) [Compound 41, (S*)-12-(5-(6-amino-2-fluoropyridin-3-yl)-1H-imidazol-2-yl)-7-chloro-8-fluoro-2-methyl-13,14-dihydro-2H-spiro[benzo[5,6]azocino[4,3-g]indolizine-3,1′-cyclopropane]-1,10(4H,12H)-dione], the IC50 is greater than 10000 nM against human plasma kallikrein and 0.0086 µM at Factor XIa (setting [1]). For the same molecule, the inhibition constant (Ki) at Factor XIa turned out to be 0.0043 µM.

`Cn1nncc1-c1cnc([C@@H]2CCc3c4c(cc(=O)n32)-c2c(ccc(Cl)c2F)CC2(CC2)NC4=O)[nH]1` (stereo in doubt) [Compound 42, (S*)-7-chloro-8-fluoro-12-(5-(1-methyl-1H-1,2,3-triazol-5-yl)-1H-imidazol-2-yl)-13,14-dihydro-2H-spiro[benzo[5,6]azocino[4,3-g]indolizine-3,1′-cyclopropane]-1,10(4H,12H)-dione]: the figures for the IC50 at human plasma kallikrein and at Factor XIa (setting [1]) were greater than 10000 nM and 0.928 µM, respectively. At Factor XIa, the Ki stood at 0.464 µM.

In the case of `Cn1nncc1-c1cnc([C@H]2CCc3c4c(cc(=O)n32)-c2c(ccc(Cl)c2F)CC2(CC2)NC4=O)[nH]1` (stereo in doubt) [Compound 43, (R*)-7-chloro-8-fluoro-12-(5-(1-methyl-1H-1,2,3-triazol-5-yl)-1H-imidazol-2-yl)-13,14-dihydro-2H-spiro[benzo[5,6]azocino[4,3-g]indolizine-3,1′-cyclopropane]-1,10(4H,12H)-dione], the concentration for half-maximal inhibition (IC50) against human plasma kallikrein is greater than 10000 nM; at Factor XIa (setting [3]), greater than 10 µM. In addition, the Ki at Factor XIa (setting [2]) is greater than 5 µM.

Consider `Cn1nncc1-c1cnc([C@@H]2CCc3c4c(cc(=O)n32)-c2c(ccc(Cl)c2F)CCNC4=O)[nH]1` (stereo in doubt) [Compound 44, (S*)-7-chloro-8-fluoro-12-(5-(1-methyl-1H-1,2,3-triazol-5-yl)-1H-imidazol-2-yl)-3,4,13,14-tetrahydrobenzo[5,6]azocino[4,3-g]indolizine-1,10(2H,12H)-dione], for which the IC50 at human plasma kallikrein was greater than 10000 nM; on Factor XIa (setting [3]), greater than 10 µM. Also, on Factor XIa (setting [2]), the Ki was greater than 5 µM.

`Cn1nncc1-c1cnc([C@H]2CCc3c4c(cc(=O)n32)-c2c(ccc(Cl)c2F)CCNC4=O)[nH]1` (stereo in doubt) [Compound 45, (R*)-7-chloro-8-fluoro-12-(5-(1-methyl-1H-1,2,3-triazol-5-yl)-1H-imidazol-2-yl)-3,4,13,14-tetrahydrobenzo[5,6]azocino[4,3-g]indolizine-1,10(2H,12H)-dione]: the figures for the concentration for half-maximal inhibition (IC50) on human plasma kallikrein and at Factor XIa (setting [3]) were greater than 10000 nM and 5.15 µM, respectively. Also, the Ki on Factor XIa (setting [2]) was 2.58 µM.

On to `Nc1ccc(-c2cnc([C@@H]3CCc4c5c(cc(=O)n43)-c3c(ccc(Cl)c3F)CCNC5=O)[nH]2)c(F)n1` (stereo in doubt) [Compound 46, (S*)-12-(5-(6-amino-2-fluoropyridin-3-yl)-1H-imidazol-2-yl)-7-chloro-8-fluoro-3,4,13,14-tetrahydrobenzo[5,6]azocino[4,3-g]indolizine-1,10(2H,12H)-dione], for which the IC50 is greater than 10000 nM against human plasma kallikrein and 9.15 µM at Factor XIa (setting [3]). Further, the Ki at Factor XIa (setting [2]) was found to be 4.57 µM.

As for `Nc1ccc(-c2cnc([C@H]3CCc4c5c(cc(=O)n43)-c3c(ccc(Cl)c3F)CCNC5=O)[nH]2)c(F)n1` (stereo in doubt) [Compound 47, (R*)-12-(5-(6-amino-2-fluoropyridin-3-yl)-1H-imidazol-2-yl)-7-chloro-8-fluoro-3,4,13,14-tetrahydrobenzo[5,6]azocino[4,3-g]indolizine-1,10(2H,12H)-dione], the half-inhibitory concentration (IC50) at human plasma kallikrein is 400 nM; on Factor XIa (setting [1]) it was 0.005 µM. At Factor XIa, the Ki was found to be 0.0025 µM.
